For this assay, the target named is T1, hNaV1.7 (Homo sapiens, UniProt Q15858).
T1 construct: expressed in transfected cells; host or cells: HEK293
Description: QPatch NaV1.7 assay (whole-cell patch clamp, QPatch16x). The format is cell-based. The following applies: HEK293-hNaV1.7 cells. The essentials: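 HEK293 cells expressing hNaV1.7 recorded by automated whole-cell patch clamp (CsF internal, pH 7.3). Peak currents from 20 ms steps to 0 mV measured at holding potentials of −90 mV and V1/2 SSI; four-point cumulative concentrations, 120 s each, Hill fits gave pIC50 at each potential.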

The mark [1] stands for this setting: holding voltage V1/2 SSI (half of channels inactivated), read-out: QP Nav1.7 SSI vhalf pIC50 (converted).
The mark [2] stands for this setting: holding voltage −90 mV (most channels closed), read-out: QP Nav1.7 −90 mV pIC50 (converted).

Structures are written as SMILES. Counter-ions that a name gives are not always drawn. Like-named read-outs stand apart in the source and are kept apart here.

T1 sequence (Q15858 whole entry): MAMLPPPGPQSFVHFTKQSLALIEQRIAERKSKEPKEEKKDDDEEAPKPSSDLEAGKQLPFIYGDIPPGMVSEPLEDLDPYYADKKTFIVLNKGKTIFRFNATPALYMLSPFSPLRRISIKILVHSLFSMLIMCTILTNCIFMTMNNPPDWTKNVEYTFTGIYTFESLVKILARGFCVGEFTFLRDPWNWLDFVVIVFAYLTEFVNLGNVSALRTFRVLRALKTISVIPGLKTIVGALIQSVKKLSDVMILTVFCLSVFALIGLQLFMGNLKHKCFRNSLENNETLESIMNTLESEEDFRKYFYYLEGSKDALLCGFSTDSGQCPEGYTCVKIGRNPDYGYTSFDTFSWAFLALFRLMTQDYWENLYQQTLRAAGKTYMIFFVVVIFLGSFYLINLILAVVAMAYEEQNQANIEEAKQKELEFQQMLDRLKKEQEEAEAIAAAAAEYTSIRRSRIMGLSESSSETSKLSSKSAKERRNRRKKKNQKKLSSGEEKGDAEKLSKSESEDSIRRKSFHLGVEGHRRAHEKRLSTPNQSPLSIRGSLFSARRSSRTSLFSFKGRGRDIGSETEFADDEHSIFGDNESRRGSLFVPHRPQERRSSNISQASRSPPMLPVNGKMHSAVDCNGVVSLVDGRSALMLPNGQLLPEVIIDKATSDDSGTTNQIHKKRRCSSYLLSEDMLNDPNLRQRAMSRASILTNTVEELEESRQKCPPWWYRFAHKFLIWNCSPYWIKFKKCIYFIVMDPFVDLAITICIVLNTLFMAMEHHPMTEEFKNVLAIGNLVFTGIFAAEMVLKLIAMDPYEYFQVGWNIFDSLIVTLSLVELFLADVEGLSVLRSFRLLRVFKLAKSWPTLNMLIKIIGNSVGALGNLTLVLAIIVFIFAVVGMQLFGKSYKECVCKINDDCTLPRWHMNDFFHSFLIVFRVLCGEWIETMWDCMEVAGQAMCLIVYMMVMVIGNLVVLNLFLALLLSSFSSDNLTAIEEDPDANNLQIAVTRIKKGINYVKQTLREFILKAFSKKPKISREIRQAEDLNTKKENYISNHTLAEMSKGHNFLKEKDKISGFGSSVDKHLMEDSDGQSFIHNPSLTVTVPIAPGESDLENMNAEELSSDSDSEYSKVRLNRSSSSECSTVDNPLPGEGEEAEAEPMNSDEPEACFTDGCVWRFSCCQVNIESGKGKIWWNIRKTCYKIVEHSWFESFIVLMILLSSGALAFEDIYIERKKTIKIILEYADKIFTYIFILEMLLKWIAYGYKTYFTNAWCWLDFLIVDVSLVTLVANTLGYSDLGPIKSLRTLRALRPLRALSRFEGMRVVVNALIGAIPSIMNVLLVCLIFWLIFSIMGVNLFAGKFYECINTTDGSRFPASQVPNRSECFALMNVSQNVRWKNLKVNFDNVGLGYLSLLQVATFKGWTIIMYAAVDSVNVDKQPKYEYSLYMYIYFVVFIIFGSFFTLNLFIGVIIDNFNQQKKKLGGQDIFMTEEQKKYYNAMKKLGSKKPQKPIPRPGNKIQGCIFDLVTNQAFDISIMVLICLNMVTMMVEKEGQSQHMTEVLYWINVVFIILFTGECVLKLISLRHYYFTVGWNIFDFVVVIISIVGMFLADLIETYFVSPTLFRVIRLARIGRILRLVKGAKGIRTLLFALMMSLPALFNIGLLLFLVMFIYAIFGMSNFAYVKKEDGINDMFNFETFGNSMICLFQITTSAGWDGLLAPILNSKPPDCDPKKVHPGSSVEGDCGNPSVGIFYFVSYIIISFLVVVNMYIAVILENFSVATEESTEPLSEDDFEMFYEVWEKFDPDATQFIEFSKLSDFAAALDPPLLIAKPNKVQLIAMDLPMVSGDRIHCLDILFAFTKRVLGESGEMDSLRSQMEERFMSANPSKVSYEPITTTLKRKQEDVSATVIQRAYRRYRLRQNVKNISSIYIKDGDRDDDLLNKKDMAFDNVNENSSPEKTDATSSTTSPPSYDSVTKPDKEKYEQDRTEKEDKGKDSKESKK

For the compound `O=C1NCC[C@]12CC[C@@H](c1cc(-c3ccc(C(F)(F)F)cc3)ccn1)N2` [Example 114, (2S,5R)-2-[4-[4-(Trifluoromethyl)phenyl]-2-pyridyl]-1,7-diazaspiro[4.4]nonan-6-one hydrochloride], the IC50 is, setting by setting: under setting [1], 15.8 µM; under setting [2], 79.4 µM.

With `O=C1NCC[C@]12CC[C@H](c1cc(-c3ccc(C(F)(F)F)cc3)ccn1)N2` [Example 115, (2R,5R)-2-[4-[4-(Trifluoromethyl)phenyl]-2-pyridyl]-1,7-diazaspiro[4.4]nonan-6-one hydrochloride], the IC50 was 2.51 µM under setting [1] and 31.6 µM under setting [2].

Consider `O=C1NCC[C@]12CC[C@@H](c1cc(-c3cccc(OC(F)(F)F)c3)ccn1)N2` [Example 116, (2S,5R)-2-[4-[3-(Trifluoromethoxy)phenyl]-2-pyridyl]-1,7-diazaspiro[4.4]nonan-6-one hydrochloride], for which the IC50 runs as follows: under setting [1], 10 µM; under setting [2], 79.4 µM.

Take `O=C1NCC[C@]12CC[C@H](c1cc(-c3cccc(OC(F)(F)F)c3)ccn1)N2` [Example 117, (2R,5R)-2-[4-[3-(Trifluoromethoxy)phenyl]-2-pyridyl]-1,7-diazaspiro[4.4]nonan-6-one hydrochloride]: the IC50 by setting is: under setting [1], 0.398 µM; under setting [2], 7.94 µM.

As to `O=C1NCC[C@@]12CC[C@H](c1cc(-c3cccc(OC(F)(F)F)c3)ccn1)N2` [Example 118, (2R,5S)-2-[4-[3-(Trifluoromethoxy)phenyl]-2-pyridyl]-1,7-diazaspiro[4.4]nonan-6-one hydrochloride], the IC50 under setting [1] is 7.94 µM and the IC50 under setting [2] is 50.1 µM.

Take `O=C1NCC[C@@]12CC[C@@H](c1cc(-c3cccc(OC(F)(F)F)c3)ccn1)N2` [Example 119, (2S,5S)-2-[4-[3-(Trifluoromethoxy)phenyl]-2-pyridyl]-1,7-diazaspiro[4.4]nonan-6-one hydrochloride]: the IC50 reads like this: under setting [1], 3.98 µM; under setting [2], 31.6 µM.

Turning to `CCOc1ccc(F)c(-c2cc(C)nc([C@@H]3CC[C@]4(CCN(C)C4=O)N3)c2)c1` [Example 120, (2S,5R)-2-[4-(5-Ethoxy-2-fluoro-phenyl)-6-methyl-pyridin-2-yl]-7-methyl-1,7-diaza-spiro[4.4]nonan-6-one hydrochloride], the IC50 is 0.794 µM under setting [1] and 20 µM under setting [2].

On to `CCOc1ccc(F)c(-c2cc(C)nc([C@H]3CC[C@]4(CCN(C)C4=O)N3)c2)c1` [Example 121, (2R,5R)-2-[4-(5-Ethoxy-2-fluoro-phenyl)-6-methyl-pyridin-2-yl]-7-methyl-1,7-diaza-spiro[4.4]nonan-6-one hydrochloride], for which the IC50 under setting [1] was 0.631 µM and the IC50 under setting [2] was 12.6 µM.

For `COc1cc(C(F)(F)F)ccc1-c1cc(C)nc([C@@H]2CC[C@@]3(CCN(C)C3=O)N2)c1` [Example 122, (2S,5S)-2-[4-[2-Methoxy-4-(trifluoromethyl)phenyl]-6-methyl-2-pyridyl]-7-methyl-1,7-diazaspiro[4.4]nonan-6-one hydrochloride], the IC50 runs as follows: under setting [1], 3.16 µM; under setting [2], 7.94 µM.

Consider `CCOc1cc(-c2cc(C)nc([C@@H]3CC[C@]4(CCN(C)C4=O)N3)c2)ccc1F` [Example 123, (2S,5R)-2-[4-(3-Ethoxy-4-fluoro-phenyl)-6-methyl-2-pyridyl]-7-methyl-1,7-diazaspiro[4.4]nonan-6-one hydrochloride], for which the IC50 by setting is: under setting [1], 39.8 µM; under setting [2], 251 µM.

Turning to `CCOc1cc(-c2cc(C)nc([C@H]3CC[C@]4(CCN(C)C4=O)N3)c2)ccc1F` [Example 124, (2R,5R)-2-[4-(3-Ethoxy-4-fluoro-phenyl)-6-methyl-2-pyridyl]-7-methyl-1,7-diazaspio[4.4]nonan-6-one hydrochloride], the IC50 is 7.94 µM under setting [1] and 126 µM under setting [2].

With `CCOc1cc(-c2cc(C)nc([C@H]3CC[C@@]4(CCN(C)C4=O)N3)c2)ccc1F` [Example 125, hydrochloride], the IC50 by setting is: under setting [1], 25.1 µM; under setting [2], 158 µM.

For `CCOc1cc(-c2cc(C)nc([C@@H]3CC[C@@]4(CCN(C)C4=O)N3)c2)ccc1F` [Example 126, (2S,5S)-2-[4-(3-Ethoxy-4-fluoro-phenyl)-6-methyl-2-pyridyl]-7-methyl-1,7-diazaspiro[4.4]nonan-6-one hydrochloride], the IC50 is 20 µM under setting [1] and 316 µM under setting [2].

With `Cc1cc(-c2cccc(OC(F)(F)F)c2)cc([C@H]2CC[C@@]3(CCN(C)C3=O)N2)n1` [Example 127, (2R,5S)-7-Methyl-2-[6-methyl-4-[3-(trifluoromethoxy)phenyl]-2-pyridyl]-1,7-diazaspiro[4.4]nonan-6-one hydrochloride], the IC50 is 12.6 µM under setting [1] and 12.6 µM under setting [2].

Turning to `Cc1cc(-c2cccc(OC(F)(F)F)c2)cc([C@@H]2CC[C@]3(CCN(C)C3=O)N2)n1` [Example 128, (2S,5R)-7-Methyl-2-[6-methyl-4-[3-(trifluoromethoxy)phenyl]-2-pyridyl]-1,7-diazaspiro[4.4]nonan-6-one hydrochloride], the IC50 under setting [1] is 5.01 µM and the IC50 under setting [2] was 20 µM.

Take `COc1cc(C(F)(F)F)ccc1-c1cc([C@@H]2CC[C@]3(CCN(C)C3=O)N2)ncc1C` [Example 129, (2S,5R)-2-[4-[2-Methoxy-4-(trifluoromethyl)phenyl]-5-methyl-2-pyridyl]-7-methyl-1,7-diazaspiro[4.4]nonan-6-one hydrochloride]: the IC50 is 20 µM under setting [1] and 200 µM under setting [2].

With `COc1cc(C(F)(F)F)ccc1-c1cc([C@H]2CC[C@]3(CCN(C)C3=O)N2)ncc1C` [Example 130, (2R,5R)-2-[4-[2-Methoxy-4-(trifluoromethyl)phenyl]-5-methyl-2-pyridyl]-7-methyl-1,7-diazaspiro[4.4]nonan-6-one hydrochloride], the IC50 is 7.94 µM under setting [1] and 158 µM under setting [2].

With `COc1cc(C(F)(F)F)ccc1-c1cc([C@H]2CC[C@@]3(CCN(C)C3=O)N2)ncc1C` [Example 131, (2R,5S)-2-[4-[2-Methoxy-4-(trifluoromethyl)phenyl]-5-methyl-2-pyridyl]-7-methyl-1,7-diazaspiro[4.4]nonan-6-one hydrochloride], the IC50 is, setting by setting: under setting [1], 2 µM; under setting [2], 100 µM.

As to `COc1cc(C(F)(F)F)ccc1-c1cc([C@@H]2CC[C@@]3(CCN(C)C3=O)N2)ncc1C` [Example 132, (2S,5S)-2-[4-[2-Methoxy-4-(trifluoromethyl)phenyl]-5-methyl-2-pyridyl]-7-methyl-1,7-diazaspiro[4.4]nonan-6-one hydrochloride], the IC50 was 39.8 µM under setting [1] and 251 µM under setting [2].

Turning to `CCOc1ccc(F)c(-c2cc([C@H]3CC[C@@]4(CCN(C)C4=O)N3)ncc2C)c1` [Example 137, (2R,5S)-2-[4-(5-Ethoxy-2-fluoro-phenyl)-5-methyl-2-pyridyl]-7-methyl-1,7-diazaspiro[4.4]nonan-6-one hydrochloride], the IC50 by setting is: under setting [1], 20 µM; under setting [2], 158 µM.

Take `CCOc1ccc(F)c(-c2cc([C@@H]3CC[C@@]4(CCN(C)C4=O)N3)ncc2C)c1` [Example 138, (2S,5S)-2-[4-(5-Ethoxy-2-fluoro-phenyl)-5-methyl-2-pyridyl]-7-methyl-1,7-diazaspiro[4.4]nonan-6-one hydrochloride]: the IC50 is, setting by setting: under setting [1], 25.1 µM; under setting [2], 200 µM.

As for `CCOc1ccc(F)c(-c2cc([C@@H]3CC[C@]4(CCN(C)C4=O)N3)ncc2C)c1` [Example 139, (2S,5R)-2-[4-(5-Ethoxy-2-fluoro-phenyl)-5-methyl-2-pyridyl]-7-methyl-1,7-diazaspiro[4.4]nonan-6-one hydrochloride], the IC50 under setting [1] is 39.8 µM and the IC50 under setting [2] was 251 µM.

Regarding `CCOc1ccc(F)c(-c2cc([C@H]3CC[C@]4(CCN(C)C4=O)N3)ncc2C)c1` [Example 140, (2R,5R)-2-[4-(5-Ethoxy-2-fluoro-phenyl)-5-methyl-2-pyridyl]-7-methyl-1,7-diazaspiro[4.4]nonan-6-one hydrochloride], the IC50 was 31.6 µM under setting [1] and 100 µM under setting [2].

Consider `CCOc1ccc(F)c(-c2cc([C@H]3CC[C@]4(CCN(C)C4=O)N3)nc(C)c2C)c1` [Example 141, (2R,5R)-2-[4-(5-Ethoxy-2-fluoro-phenyl)-5,6-dimethyl-2-pyridyl]-7-methyl-1,7-diazaspiro[4.4]nonan-6-one hydrochloride], for which the IC50 was 6.31 µM under setting [1] and 63.1 µM under setting [2].

Regarding `CCOc1ccc(F)c(-c2cc([C@@H]3CC[C@@]4(CCN(C)C4=O)N3)nc(C)c2C)c1` [Example 142, (2S,5S)-2-[4-(5-Ethoxy-2-fluoro-phenyl)-5,6-dimethyl-2-pyridyl]-7-methyl-1,7-diazaspiro[4.4]nonan-6-one hydrochloride], the IC50 was 0.794 µM under setting [1] and 15.8 µM under setting [2].

As for `CCOc1ccc(F)c(-c2cc([C@@H]3CC[C@]4(CCN(C)C4=O)N3)nc(C)c2C)c1` [Example 143, (2S,5R)-2-[4-(5-Ethoxy-2-fluoro-phenyl)-5,6-dimethyl-2-pyridyl]-7-methyl-1,7-diazaspiro[4.4]nonan-6-one hydrochloride], the IC50 is 10 µM under setting [1] and 63.1 µM under setting [2].

Regarding `CCOc1ccc(F)c(-c2cc([C@H]3CC[C@@]4(CCN(C)C4=O)N3)nc(C)c2C)c1` [Example 144, (2R,5S)-2-[4-(5-Ethoxy-2-fluoro-phenyl)-5,6-dimethyl-2-pyridyl]-7-methyl-1,7-diazaspiro[4.4]nonan-6-one hydrochloride], the IC50 is 3.98 µM under setting [1] and 31.6 µM under setting [2].

For the compound `CCOc1ccc(F)c(-c2ccnc([C@@H]3CC[C@]4(CCN(C)C4=O)N3)c2)c1` [Example 145, (2S,5R)-2-[4-(5-Ethoxy-2-fluoro-phenyl)-2-pyridyl]-7-methyl-1,7-diazaspiro[4.4]nonan-6-one hydrochloride], the IC50 is, setting by setting: under setting [1], 6.31 µM; under setting [2], 79.4 µM.

Source of the values: US9376436B2, “2-(pyridin-2yl)-1, 7-diaza-spiro [4.4] nonane-6-one compound as voltage-gated sodium channels modulators” (CONVERGENCE PHARMACEUTICALS LIMITED, priority 2011, dated 2016).
